pIC50, pKd, pKi: −log10 of the molar value. Like-named read-outs stand apart in the source and are kept apart here. Bridge positions count the residues as written; N and C are the ends. Square brackets hold non-standard residues; d marks the D form. Peptide text beside a SMILES is read from it. Cit = NC(=O)NCCC[C@H](N)C(=O)O
Tests used:
[1] = biological target: T1, LSD1 (Homo sapiens, UniProt O60341); experiment: HRP-coupled fluorescence LSD1 demethylation activity and inhibition assay, substrate H3_1-21 K4(Me); type: biochemical; settings: for mode of inhibition / inhibition of LSD1 (in words): enzyme activity assay; for mode of inhibition: inhibition kinetics; for Km: Tris buffer pH 8.0
T1 construct: made in house; host or cells: Escherichia coli Rosetta 2 (pET15b)

[2] = biological target: T1, LSD1; experiment: SPR biosensor interaction kinetic assay with immobilized LSD1 (15 °C, TBS-T with DTT); type: binding
[3] = 100 μM, supplement sheet SMILES and Activity, read-out: Inhibition at 100 μM (%)
[4] = read-out: % inhibition at 100 μM
[5] = supplement sheet SMILES and Activity, read-out: IC50

| inhibition at 100 µM [1, 3] [%] | inhibition at 100 µM [1, 4] [%] | pIC50 [1, 5] | Compound | further results |
| --- | --- | --- | --- | --- |
| 95 | 95 | – | CSCC[C@@H]1NC(=O)[C@H](NC(=O)[C@H](CCCNC(=N)N)NC(=O)[C@H](C)N)CCC/C=C\CCC[C@@H](C(=O)N[C@@H](C)C(=O)N[C@@H](CCCNC(=N)N)C(=O)N[C@@H](CCCCN)C(=O)N[C@@H](CO)C(=O)N[C@H](C(N)=O)[C@@H](C)O)NC(=O)[C@H](CCC(N)=O)NC1=O (relative stereo) [Peptide 24, AR*G^penMQG^penARKST-NH2] | mode of inhibition [1]: competitive inhibitor |
| 100 | 90 | – | CSCC[C@@H]1NC(=O)[C@H](NC(=O)[C@H](CCCNC(=N)N)NC(=O)[C@H](C)N)CCC/C=C\CCC[C@H](C(=O)N[C@@H](C)C(=O)N[C@@H](CCCNC(=N)N)C(=O)N[C@@H](CCCCN)C(=O)N[C@@H](CO)C(=O)N[C@H](C(N)=O)[C@@H](C)O)NC(=O)[C@H](CCC(N)=O)NC1=O (relative stereo) [Peptide 26, AR*G^penMQ*G^penARKST-NH2] | – |
| – | < 20 | – | CSCC[C@@H]1NC(=O)[C@H](NC(=O)[C@H](CCCNC(=N)N)NC(=O)[C@H](C)N)CCC(=O)NCCCC[C@@H](C(=O)N[C@@H](C)C(=O)N[C@@H](CCCNC(=N)N)C(=O)N[C@@H](CCCCN)C(=O)N[C@@H](CO)C(=O)N[C@H](C(N)=O)[C@@H](C)O)NC(=O)[C@H](CCC(N)=O)NC1=O (relative stereo) [Peptide 32] | pKi ([1]; read-out: Ki): < 4.00 |
| – | – | – | CSCC[C@H](NC(=O)[C@@H](NC(=O)[C@H](CCCNC(=N)N)NC(=O)[C@H](C)N)[C@@H](C)O)C(=O)N[C@@H](CCC(N)=O)C(=O)N[C@H](C(=O)N[C@@H](C)C(=O)N[C@@H](CCCNC(=N)N)C(=O)N[C@@H](CCCCN)C(=O)N[C@@H](CO)C(=O)N[C@H](C(=O)NCC(=O)NCC(=O)N[C@@H](CCCCN)C(=O)N[C@@H](C)C(=O)O)[C@@H](C)O)[C@@H](C)O [Peptide 2] | pKd [2]: 5.30 |
| – | – | – | CSCC[C@H](NC(=O)[C@@H](NC(=O)[C@H](CCCNC(=N)N)NC(=O)[C@H](C)N)[C@@H](C)O)C(=O)N[C@@H](CCC(N)=O)C(=O)N[C@H](C(=O)N[C@@H](C)C(=O)N[C@@H](CCCNC(=N)N)C(=O)N[C@@H](CCCCN)C(=O)O)[C@@H](C)O [Peptide 5] | pKd [2]: < 3.70 |
| 100 | 100 | – | CSCC[C@H](NC(=O)[C@@H]1C/C=C\C[C@H](N)C(=O)N[C@@H](CCCNC(=N)N)C(=O)N1)C(=O)N[C@@H](CCC(N)=O)C(=O)N[C@H](C(=O)N[C@@H](C)C(=O)N[C@@H](CCCNC(=N)N)C(=O)N[C@@H](CCCCN)C(=O)N[C@@H](CO)C(=O)N[C@H](C(N)=O)[C@@H](C)O)[C@@H](C)O [Peptide 19] | – |
| 95 | 95 | – | C=CC[C@H](NC(=O)[C@H](CCC(N)=O)NC(=O)[C@H](CCSC)NC(=O)[C@H](CC=C)NC(=O)[C@H](CCCNC(=N)N)NC(=O)[C@H](C)N)C(=O)N[C@@H](C)C(=O)N[C@@H](CCCNC(=N)N)C(=O)N[C@@H](CCCCN)C(=O)N[C@@H](CO)C(=O)N[C@H](C(N)=O)[C@@H](C)O [Peptide 20, ARG^alyMQG^alyARKST-NH2] | – |
| 100 | 100 | – | C=CCCC[C@H](NC(=O)[C@H](CCC(N)=O)NC(=O)[C@H](CCSC)NC(=O)[C@H](CCCC=C)NC(=O)[C@H](CCCNC(=N)N)NC(=O)[C@H](C)N)C(=O)N[C@@H](C)C(=O)N[C@@H](CCCNC(=N)N)C(=O)N[C@@H](CCCCN)C(=O)N[C@@H](CO)C(=O)N[C@H](C(N)=O)[C@@H](C)O [Peptide 22, ARG^penMQG^penARKST-NH2] | – |
| 75 | 75 | – | CSCC[C@@H]1NC(=O)[C@@H](NC(=O)[C@H](CCCNC(=N)N)NC(=O)[C@H](C)N)CCC/C=C\CCC[C@@H](C(=O)N[C@@H](C)C(=O)N[C@@H](CCCNC(=N)N)C(=O)N[C@@H](CCCCN)C(=O)N[C@@H](CO)C(=O)N[C@H](C(N)=O)[C@@H](C)O)NC(=O)[C@H](CCC(N)=O)NC1=O [Peptide 23, ARG^penMQG^penARKST-NH2] | – |
| 95 | 95 | – | CSCC[C@@H]1NC(=O)[C@@H](NC(=O)[C@H](CCCNC(=N)N)NC(=O)[C@H](C)N)CCC/C=C\CCC[C@H](C(=O)N[C@@H](C)C(=O)N[C@@H](CCCNC(=N)N)C(=O)N[C@@H](CCCCN)C(=O)N[C@@H](CO)C(=O)N[C@H](C(N)=O)[C@@H](C)O)NC(=O)[C@H](CCC(N)=O)NC1=O [Peptide 25, ARG^penMQ*G^penARKST-NH2] | – |
| 65 | 65 | 4.21 | CSCC[C@@H]1NC(=O)[C@@H](NC(=O)[C@H](CCCNC(=N)N)NC(=O)[C@H](C)N)CCCCNC(=O)CC[C@@H](C(=O)N[C@@H](C)C(=O)N[C@@H](CCCNC(=N)N)C(=O)N[C@@H](CCCCN)C(=O)N[C@@H](CO)C(=O)N[C@H](C(N)=O)[C@@H](C)O)NC(=O)[C@H](CCC(N)=O)NC1=O [Peptide 27] | pKi ([1]; read-out: Ki): 4.51 |
| 90 | 90 | 4.85 | CSCC[C@@H]1NC(=O)[C@@H](NC(=O)[C@H](CCCNC(=N)N)NC(=O)[C@@H]2CCCN2)CCCCNC(=O)CC[C@@H](C(=O)N[C@@H](C)C(=O)N[C@@H](CCCNC(=N)N)C(=O)N[C@@H](CCCCN)C(=O)N[C@@H](CO)C(=O)N[C@H](C(N)=O)[C@@H](C)O)NC(=O)[C@H](CCC(N)=O)NC1=O [Peptide 29] (H-PRKMQEARKST-NH2; lactam 3-6) | pKi ([1]; read-out: Ki): 5.15 |
| 75 | 75 | 4.36 | CSCC[C@@H]1NC(=O)[C@@H](NC(=O)[C@H](CCCNC(=N)N)NC(=O)[C@@H]2CCCN2)CCC(=O)NCCCC[C@@H](C(=O)N[C@@H](C)C(=O)N[C@@H](CCCNC(=N)N)C(=O)N[C@@H](CCCCN)C(=O)N[C@@H](CO)C(=O)N[C@H](C(N)=O)[C@@H](C)O)NC(=O)[C@H](CCC(N)=O)NC1=O [Peptide 30] (H-PREMQKARKST-NH2; lactam 3-6) | pKi ([1]; read-out: Ki): 4.66 |
| 97 | 97 | 4.89 | CSCC[C@@H]1NC(=O)[C@@H](NC(=O)[C@H](CCCNC(N)=O)NC(=O)[C@H](C)N)CCC(=O)NCCCC[C@@H](C(=O)N[C@@H](C)C(=O)N[C@@H](CCCNC(=N)N)C(=O)N[C@@H](CCCCN)C(=O)N[C@@H](CO)C(=O)N[C@H](C(N)=O)[C@@H](C)O)NC(=O)[C@H](CCC(N)=O)NC1=O [Peptide 33] (H-A[Cit]EMQKARKST-NH2; lactam 3-6) | – |
| – | < 30 | – | CSCC[C@@H]1NC(=O)[C@@H](NC(=O)[C@H](CCCNC(=N)N)NC(=O)[C@H](C)N)CCCCn2cc(nn2)C[C@@H](C(=O)N[C@@H](C)C(=O)N[C@@H](CCCNC(=N)N)C(=O)N[C@@H](CCCCN)C(=O)N[C@@H](CO)C(=O)N[C@H](C(N)=O)[C@@H](C)O)NC(=O)[C@H](CCC(N)=O)NC1=O [Peptide 35, ARK^azdMQG^prgARKST-NH2] | inhibition of LSD1 (in words) [1]: weak competitive inhibitors; pKi ([1]; read-out: Ki): < 4.00 |
| 70 | 70 | 4.22 | CSCC[C@@H]1NC(=O)[C@@H](NC(=O)[C@H](CCCNC(=N)N)NC(=O)[C@H](C)N)Cc2cn(nn2)CCCC[C@@H](C(=O)N[C@@H](C)C(=O)N[C@@H](CCCNC(=N)N)C(=O)N[C@@H](CCCCN)C(=O)N[C@@H](CO)C(=O)N[C@H](C(N)=O)[C@@H](C)O)NC(=O)[C@H](CCC(N)=O)NC1=O [Peptide 36, ARG^prgMQK^azdARKST-NH2] | inhibition of LSD1 (in words) [1]: weak competitive inhibitors; pKi ([1]; read-out: Ki): 4.52 |
| – | – | – | H3_1-21 K4(Me): N-terminal 21 amino acids of histone H3, mono-N-methylated at Lys4; LSD1 substrate [reference compound] | kcat ([1]; substrate of LSD1, 50 mM NaCl): 0.6 s^–1; Km ([1]; substrate of LSD1, 50 mM NaCl): 20 µM; Km ([1]; substrate of LSD1, 150 mM NaCl): 80 µM; Km ([1]; substrate of LSD1, without added NaCl): 10 µM |

| Compound | inhibition at 100 µM [1, 3] [%] | inhibition at 100 µM [1, 4] [%] | pIC50 [1, 5] | further results |
| --- | --- | --- | --- | --- |
| CSCC[C@@H]1NC(=O)[C@H](NC(=O)[C@H](CCCNC(=N)N)NC(=O)[C@H](C)N)CCCCNC(=O)CC[C@@H](C(=O)N[C@@H](C)C(=O)N[C@@H](CCCNC(=N)N)C(=O)N[C@@H](CCCCN)C(=O)N[C@@H](CO)C(=O)N[C@H](C(N)=O)[C@@H](C)O)NC(=O)[C@H](CCC(N)=O)NC1=O (relative stereo) [Peptide 31] | 100 | 100 | 5.28 | pKi [1]: 5.64; mode of inhibition [1]: competitive inhibitor |
| C=CC[C@H](NC(=O)[C@H](CCCNC(=N)N)NC(=O)[C@@H](N)CC=C)C(=O)N[C@@H](CCSC)C(=O)N[C@@H](CCC(N)=O)C(=O)N[C@H](C(=O)N[C@@H](C)C(=O)N[C@@H](CCCNC(=N)N)C(=O)N[C@@H](CCCCN)C(=O)N[C@@H](CO)C(=O)N[C@H](C(N)=O)[C@@H](C)O)[C@@H](C)O [Peptide 18] | 98 | 98 | – | pIC50 [1]: 5.30 |
| CSCC[C@@H]1NC(=O)[C@@H](NC(=O)[C@H](CCCNC(=N)N)NC(=O)[C@H](C)N)CCC(=O)NCCCC[C@@H](C(=O)N[C@@H](C)C(=O)N[C@@H](CCCNC(=N)N)C(=O)N[C@@H](CCCCN)C(=O)N[C@@H](CO)C(=O)N[C@H](C(N)=O)[C@@H](C)O)NC(=O)[C@H](CCC(N)=O)NC1=O [Peptide 28] | 98 | 98 | 4.92 | pKi [1]: 5.40; mode of inhibition [1]: competitive inhibitor |
| CSCC[C@@H]1NC(=O)[C@@H](NC(=O)[C@H](CCCNC(=N)N)NC(=O)[C@H](C)N)CCC(=O)NCCCC[C@@H](C(=O)N[C@@H](C)C(=O)N[C@@H](CCCNC(N)=O)C(=O)N[C@@H](CCCCN)C(=O)N[C@@H](CO)C(=O)N[C@H](C(N)=O)[C@@H](C)O)NC(=O)[C@H](CCC(N)=O)NC1=O [Peptide 34] (H-AREMQKA[Cit]KST-NH2; lactam 3-6) | 97 | 97 | 4.85 | pKi [1]: 5.10 |

Reference: publication PMC7057333 (ACS Omega, 2020)
